In patent EP1056700B1, “MEDICINAL USES OF PHENYLALKANOLS AND DERIVATES” (ZingoTX Pty Ltd, priority 1997, dated 1999):
Values joined by “and” are separate entries in the source; they are usually repeats but may differ in a detail not shown here. Equal entries are not always repeated.

Legend:
Lipoxygenase (LP) = target: T1, Lipoxygenase (LP) (Rattus norvegicus, UniProt P12527); test: Lipoxygenase assay with cell-free enzyme from RBL 2H3 cells (EIA); type: biochemical; conditions: final concentration of 10 µM
T1 construct: cell-free enzyme (Wong et al, 1991) prepared from rat basophilic leukemia (RBL) 2H3 cell lines; endogenous in cells; host or cells: RBL 2H3 (rat basophilic leukemia), 15,000 g supernatant of cells disrupted by nitrogen cavitation
T1 sequence (P12527 1-673): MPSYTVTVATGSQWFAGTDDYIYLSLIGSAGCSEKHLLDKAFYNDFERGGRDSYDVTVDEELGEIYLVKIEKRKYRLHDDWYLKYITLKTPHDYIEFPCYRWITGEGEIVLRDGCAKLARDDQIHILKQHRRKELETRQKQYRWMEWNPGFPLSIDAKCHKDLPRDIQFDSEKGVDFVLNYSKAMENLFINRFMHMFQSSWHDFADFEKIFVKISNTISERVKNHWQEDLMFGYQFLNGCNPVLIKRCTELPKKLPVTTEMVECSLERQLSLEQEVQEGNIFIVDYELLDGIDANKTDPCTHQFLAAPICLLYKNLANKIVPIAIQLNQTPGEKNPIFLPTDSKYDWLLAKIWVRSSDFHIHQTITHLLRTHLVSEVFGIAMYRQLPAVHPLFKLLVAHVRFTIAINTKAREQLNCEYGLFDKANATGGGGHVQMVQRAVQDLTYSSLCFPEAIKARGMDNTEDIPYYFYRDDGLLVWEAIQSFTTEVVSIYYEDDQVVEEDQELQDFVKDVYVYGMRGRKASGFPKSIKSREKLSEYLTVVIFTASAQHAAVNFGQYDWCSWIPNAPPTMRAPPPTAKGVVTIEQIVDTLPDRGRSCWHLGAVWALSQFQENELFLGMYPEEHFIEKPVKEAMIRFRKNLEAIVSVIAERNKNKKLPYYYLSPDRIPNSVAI
Procedure: Lipoxygenase (LP) assay was performed with cell-free enzyme (Wong et al, 1991) prepared from rat basophilic leukemia (RBL) 2H3 cell lines. Cells were cultured in EMEM containing 10% fetal calf serum and antibiotic until cells reached confluence. Harvested cells were resuspended in Hepes (10 mM) buffer, pH 7.4, containing 1 mM EDTA at 1 x 10^7 cells/ml, and disrupted by nitrogen cavitation using a Parr bomb at 750 psi for 15 min. The broken cells were centrifuged at 15,000 g for 30 min. Aliquots (0.1 ml) of the supernatant were preincubated with or without drugs in Hepes buffer (10 mM Hepes, pH 7, 1 mM EDTA and 150 mM NaCl) for 5 min, and the reaction was initiated with the addition of 50 µl of CaCl2 (16 mM), 50 µl of ATP (2 mM), 5 µl of PAF (2.5 mg/ml) and 5 µl of AA (2.5 mM). The reaction mixture ([…]) was incubated at room temperature for a further 8 min, then diluted with EIA buffer at 1/200 and 1/2000 dilutions and stored on ice for EIA following the protocol provided with the kit.
Validation of LP enzyme activity was carried out by a UV spectrophotometric method in which the enzyme activity was characterised against various concentrations of Ca^2+, ATP, PAF and AA with the measurement of the formation of diene conjugated products of LP at 235 nm.
All compounds were dissolved in DMSO and assayed at a final concentration of 10 µM. NDGA was used as reference compound. The concentration of DMSO in the assay was maintained at 1.5%.

Cyclo-oxygenase (COX) = test: Cyclo-oxygenase assay in RBL 2H3 cells (PGD2 EIA); type: cell-based, rat; conditions: final concentration of 10 µM
Procedure: Cyclo-oxygenase (COX) assay was performed with cells in culture prepared from rat basophilic leukemia (RBL) 2H3 cell lines. Cells were cultured in EMEM containing 10% fetal calf serum and antibiotic until cells reached confluence. Harvested cells were subsequently seeded on 24-well plates at 1 x 10^6 cells/ml then incubated at 37°C for 3 hours. Cells were washed twice with incubation buffer (1.5 ml) containing 5 mM Hepes, 140 mM NaCl, 5 mM KCl, 0.6 mM MgCl2, 1 mM CaCl2 and […]. Cells were then covered with 0.49 ml of buffer, followed by addition of samples/solvents (0.005 ml) and incubated at 37 °C for 5 min on an orbital shaker. Arachidonic acid (0.005 ml, containing 50% EtOH) was subsequently added, and the plate was incubated at similar conditions for a further 10 min. The supernatant (0.1 ml) was aliquoted for methoxime derivatisation of PGD2, which was carried out by heating the supernatant with methoxime solution (1:1) at 60 °C for 30 min according to the instructions provided with the kit. The resultant solution was diluted with EIA buffer and stored on ice for EIA, following the protocol provided with the kit.
Validation of COX enzyme activity was carried out using EIA in which the enzyme activity was characterised against various concentrations of AA and a time course of enzyme activity.
[…] Indomethacin was used as reference compound. The concentration of DMSO in the assay was maintained at 1.5%.

Platelet rich plasma = test: Platelet aggregation: [^3H]-serotonin release from platelet rich plasma, arachidonic acid initiated; type: cell-based; conditions: Homo sapiens, activation by EC50 concentration of arachidonic acid
Procedure: Blood was collected from healthy volunteers who had taken no medication in the previous two weeks. The anticoagulant used was 3.8 % trisodium citrate. Platelet rich plasma was prepared and incubated with [^3H]-serotonin. This was followed by addition of gingerol analogues. Platelet activation was initiated using the EC50 concentration for arachidonic acid. The percentage of [^3H]-serotonin release was measured using a liquid scintillation counter. Then, dose-response curves were established and IC50 values were obtained.

DRG neuronal cells = test: Peak [Ca^2+]i transients in cultured dorsal root ganglion neurons (Fura-2); type: cell-based, rat; conditions: 10 µM applied for 1 min, 2 mM Ca^2+
Procedure: DRG from neonatal (3-5 days old) rat or adult Sprague-Dawley rats were incubated in Hanks CMF saline with 0.05% collagenase and 0.25% trypsin for 25 min at 37° C. Individual cells were obtained by trituration with fire polished Pasteur pipettes of diminishing diameters. Neurones were isolated from the cell suspension in 30% Percoll and then plated on collagen coated coverslips or in 24-well plates, then cultured in neurobasal medium with B27 supplement, 50 ng/ml 2.5 S nerve growth factor, 2 mM 1-glutamine and 100 U/ml penicillin/streptomycin. Cultures were maintained at 37° C with 5% CO2. 30% Percoll increases the percentage of capsaicin-sensitive DRG neurones up to 70%. For peak [Ca^2+]i transients measurements, cells on coverslips were incubated with 5 µM Fura-2 AM for 30 min at 37° C. The coverslips were then mounted on a chamber attached to a fast sample application perfusion system which allows changing solutions in the second range. Recordings were made on the stage of a Nikon Diaphot inverted microscope fitted with a Nikon 40 x Fluo (NA 0.85) DL Ph3 or 40 x Fluo (NA 1.3) oil objective. [Ca^2+]i was calculated from dual excitation wavelength (340/380 nm) fluorescence measurements following an intracellular calibration procedure by the Grynkiewicz equation, using MCID M2/M4 v.3.0 (Imaging Res. Inc.) software. Cells were continuously perfused with a solution consisting of 140 mM NaCl, 2 mM CaCl2, 5 mM KCl, 20 mM HEPES, 10 mM glucose, pH 7.4. To study KCl evoked depolarisation, 50 mM NaCl was replaced by equimolar KCl. Cytoplasmic localisation of Fura-2 was tested with the Mn^2+ quenching technique (Dedov and Roufogalis, 1998). All experiments were performed at room temperature (20-23°C).
Typical changes in [Ca^2+]i upon depolarisation were evoked by 50 mM KCl and by application of 1 µM capsaicin; both were applied for 30 sec. Capsaicin-evoked peak [Ca^2+]i transients are characterised by a fast rise and long-steady state [Ca^2+]i clearance from the cytoplasm. In capsaicin-sensitive cells the half-time of cytoplasmic Ca^2+ clearance was proportional to the amplitudes of peak [Ca^2+]i transients.
To examine the effect of gingerol derivatives, one or several compounds in succession at a concentration of 10 µM were applied for 1 min to the DRG neuronal cells followed by washing out for 4 min with physiological solution. To the capsaicin-sensitive cells, 10 µM capsaicin and 50 mM KCl were applied, respectively, to confirm the viability of the cells. In addition, morphological appearances of the cells were also examined at the end of experiment. […]

guinea pig atria = test: Organ bath assay on isolated guinea pig atria (rate and force of contraction); conditions: result in words, guinea pig atria
Procedure: Male guinea pigs, 3-4 weeks old, were killed by rapid cervical dislocation without induced anaesthesia. Then, the guinea pigs were dissected to isolate the atria which were immediately mounted vertically in an organ bath containing Krebs-Henseleit solution oxygenated with carbogen.
One gram tension was applied to the atria and the base line continuously adjusted until it was stable for 20 mins. The rate and force of contraction were recorded using Mac Lab equipment.
Test substances in DMSO were assayed to a maximum concentration of 50 µM at a final concentration of 2.5 % of DMSO.

rat mesenteric artery = test: Vasodilation on rat mesenteric small arteries
Text: Small arteries (200-300 µm in diameter) isolated from rat mesentery were precontracted with endothelin prior to addition of the test substances and tested for relaxation.

[1] = test system: brine shrimp (Artemia salina Leach); conditions: values determined by Meyer et al. (1982); cited from earlier work
[2] = Brine shrimp toxicity bioassay; type: in vivo; conditions: Artemia salina (brine shrimp), in vivo; 24 hours, 2% DMSO
Text: The brine shrimp assay procedure determines LC50 values of active compounds. Activities of a broad range of known active compounds are manifested as toxicity to brine shrimp (Artemia salina Leach). There are many applications of the assay including analysis of toxic substances, anaesthetics, morphine-like substances and cocarcinogenicity of phorbol esters.
The method for testing solvent toxicity used was basically that reported by J L McLaughlin in Methods of Plant Biochemistry (1991), vol. 6 (K Hostettman, ed.), Academic Press, London, 1-32. DMSO solutions of the substances to be tested were added directly to the vials containing the brine shrimp. As the concentration of DMSO that we wished to use was higher than the recommended 1% v/v testing of the toxicity of the DMSO was therefore necessary. The concentrations of DMSO tested on the shrimp, along with the results from the assay which was done in duplicate are listed below.
Brine shrimp toxicity was assayed, except for some minor modifications, according to the method of McLaughlin et al as reported in Brine Shrimp: A convenient bioassay for active plant constituents, B N Meyer, N R Ferrigni, J E Putnam, L B Jacobsen, D E Nichols and J L McLaughlin in Planta Medica (1982), 45, 31-34 and Crown gall tumours on potato discs and brine shrimp lethality: Two simple bioassays for higher plant screening and fractionation. J L McLaughlin. Methods of Plant Biochemistry (1991), vol. 6 (K Hostettman, ed.), Academic Press, London, 1-32. Ten shrimp were transferred to each of the vials and the volume adjusted to 4.9 mL. Each dose was performed in triplicate, including the control. In quick succession, the appropriate volume of additional DMSO for each dose, required to achieve a final concentration of 2%, was added before the appropriate volume of test solution. The vials were gently mixed and the time noted. After 24 hours, the number of survivors were counted and % mortality was determined. The test compounds were assayed at concentrations of 100 µM, 25 µM, 5 µM, 1 µM and 0.2 µM (and where appropriate concentrations of 0.04 µM and 0.008 µM).
The brine shrimp were able to survive without food in the vials over the 24 hour period and were therefore not fed.
The dose-response curves were constructed using the Sigmaplot computer program and the LC50 value was calculated from the intersection point of the curve and the 50 % mortality line. The LC50 values were expressed in both µM and µg/mL.

Row | activity at 10 µM (Lipoxygenase (LP)) | IC50 (Platelet rich plasma) | SMILES | Cyclooxygenase activity % activity (Cyclo-oxygenase (COX)) | Number of capsaicin-sensitive cells responding (DRG neuronal cells) | Peak [Ca^2+]i (Average ±SD) (DRG neuronal cells) | other results
1 |  | 23.4 ± 1.7 µM | CC(=O)Oc1ccccc1C(=O)O [Aspirin, reference compound] |  |  |  | 
2 | 81% |  | CCCCCCCCCC(=O)CCc1ccc(O)c(OC)c1 [[8]-paradol, 1-(4-hydroxy-3-methoxyphenyl)dodecan-3-one, reference compound] | 11% | 1 | 200 nM | FORCE OF CONTRACT^n (guinea pig atria): inactive; HEART RATE (guinea pig atria): inactive; EC50 (rat mesenteric artery; Rattus norvegicus, relaxation of small arteries (200-300 µm) precontracted with endothelin): 50 nM; relaxation of rat mesenteric artery (rat mesenteric artery; result in words): showed potency

Continued, molecule first:

Row | SMILES | activity at 10 µM (Lipoxygenase (LP)) | IC50 (Platelet rich plasma) | Cyclooxygenase activity % activity (Cyclo-oxygenase (COX)) | Number of capsaicin-sensitive cells responding (DRG neuronal cells) | Peak [Ca^2+]i (Average ±SD) (DRG neuronal cells) | other results
3 | CCCCCCCCCC(=O)C(O)c1ccc(O)c(OC)c1 (stereo not drawn) [1-hydroxy-1-(4-hydroxy-3-methoxyphenyl)undecan-2-one] | 83% | 69.4 ± 2.6 µM | 16% |  |  | 
4 | CCCCCCCCCCC(C)(O)CCc1ccc(O)c(OC)c1 (stereo not drawn) [3-methyl-1-(4-hydroxy-3-methoxyphenyl)tridecan-3-ol] | 5% | 75.3 ± 3.1 µM |  |  |  | 
5 | CCCCCCCCC(C)(O)CCc1ccc(O)c(OC)c1 (stereo not drawn) [3-methyl-1-(4-hydroxy-3-methoxyphenyl)undecan-3-ol] | 3% | 45.3 ± 1.6 µM | 15% | 0 out of 4 | 0 nM | 
6 | COc1cc([C@@H]2c3cc4c(cc3[C@H](O)[C@H]3COC(=O)[C@H]23)OCO4)cc(OC)c1OC [podophyllotoxin, reference compound] |  |  |  |  |  | LC50 [1]: 5.8 µM; LC50 at 24 h [2]: 3.8 µM and 1.6 µg/mL
